Where “and” joins values, the source holds several entries; their conditions need not be identical. Equal values may be shown once. Read-outs that look alike come from different tables or passages of the source. Values belong to the compound of their own block, whether it stands above or below them.
Legend:
[1] = system: FaDu (H&N, squamous) xenograft; type: in vivo
From the text: The models were chosen from different cancer indications (colon, lung, head and neck, pancreatic), and histological subtypes (adeno, squamous, large cell). […]
The resulting Kaplan-Meier plots were compared by the log-rank test.

HEPG2 = experiment: cells; settings: Homo sapiens, HepG2, read-out: GI50 of etoposide (±Compound 1)
Description: (§1) 90 μl of cells, after a 48-hour pre-growth period, were treated by mixing with 10 μl of the compound-containing media (resulting in a final DMSO concentration of 0.1%).
(§2) This is the drug concentration causing a 50% reduction compared to the net protein increase in control cells during the drug incubation period. In other words, G150 is IC50 corrected for time zero. […] TGI was calculated from Ti=Tz. […] It was calculated as 100×[(Ti−Tz)/Tz]=−50.

SKHEP1 = experiment: cells; settings: Homo sapiens, SK-HEP1, read-out: GI50 of etoposide (±Compound 1)
Description: as §1, §2

SMILES: COc1ccc([C@@H](O)c2cc(-c3ncnc4cc(N5CCOCC5)ccc34)c(F)cc2Cl)nn1 [Compound 1, (S)-[2-chloro-4-fluoro-5-(7-morpholin-4-yl-quinazolin-4-yl)-phenyl]-(6-methoxy-pyridazin-3-yl)-methanol]
Enhancement Ratio [combi/IR only] ([1]; IR 10 Gy (5 x 2 Gy) + Compound 1 150 mg/kg po): 2.1
median time to TV400% Combi ([1]; IR 10 Gy (5 x 2 Gy) + Compound 1 150 mg/kg po 10 min prior to each fraction): 46 days
tumor response ([1]; daily 4 Gy (20 Gy total), 100 mg/kg, 92 day observation period): complete response
Enhancement Ratio [combi/IR only] ([1]; total IR 10 Gy, 25 mg/kg po): 1.4
median time to TV400% Combi ([1]; total IR 10 Gy, 25 mg/kg po): 29.5 days
Enhancement Ratio [combi/IR only] ([1]; total IR 10 Gy, 100 mg/kg po): 1.9
median time to TV400% Combi ([1]; total IR 10 Gy, 100 mg/kg po): 40 days
median time to TV400% Combi ([1]; total IR 10 Gy, 300 mg/kg po): >63 days
CR (complete response) ([1]; total IR 10 Gy, 300 mg/kg po, d 63): 60% CR
Enhancement Ratio [combi/IR only] ([1]; total IR 20 Gy, 5 mg/kg po): 0.9
median time to TV400% Combi ([1]; total IR 20 Gy, 5 mg/kg po): 43 days
Enhancement Ratio [combi/IR only] ([1]; total IR 20 Gy, 10 mg/kg po): 1.13
median time to TV400% Combi ([1]; total IR 20 Gy, 10 mg/kg po): 56.5 days
median time to TV400% Combi ([1]; total IR 20 Gy, 100 mg/kg po): >94 days
CR (complete response) ([1]; total IR 20 Gy, 100 mg/kg po, d 94): 100% CR
Enhancement Ratio [combi/IR only] ([1]; total IR 30 Gy (6 Gy daily), 10 mg/kg po, 10 mg/kg): 2 and 1.9
Enhancement Ratio [combi/IR only] ([1]; total IR 30 Gy, 5 mg/kg po): 1.4
median time to TV400% Combi ([1]; total IR 30 Gy, 5 mg/kg po): 69 days
median time to TV400% Combi ([1]; total IR 30 Gy, 10 mg/kg po): 94 days
tolerability ([1]; total IR 30 Gy, 100 mg/kg po): not tolerated

GI50 (HEPG2): 806 nM
GI50 (SKHEP1): 83 nM
SMILES: COc1cc([C@@H]2c3cc4c(cc3[C@@H](O[C@@H]3O[C@@H]5CO[C@@H](C)O[C@H]5[C@H](O)[C@H]3O)[C@H]3COC(=O)[C@H]23)OCO4)cc(OC)c1O [Etoposide]

Reference: patent publication US11246929B2, “Combination of a protein kinase inhibitor and an additional chemotherapeutic agent” (Merck Patent GmbH, priority 2016, dated 2022)
